The source of these data is patent US20140371244A1, “METHOD FOR TREATING PROSTATE CANCER BY USE OF PHARMACEUTICAL COMPOSITION CONTAINING A3 ADENOSINE RECEPTOR AGONIST” (priority 2009, published 2014).

One assay concerns iNOS. Briefly: Expression of iNOS protein and gene (Western blot, RT-PCR) in LPS-stimulated RAW 264.7 cells. Format: cell-based, mouse. How it is done:
The effects of the inventive composition on the expression of iNOS protein and mRNA were examined by Western blot analysis and RT-PCR. Specifically, RAW 264.7 cells were diluted with 10% FBS-containing medium to a density of 1×10^6 cells per 100 mm culture dish and cultured under the conditions of 37° C. and 5% CO2 for 24 hours, followed by washing twice with PBS. The cells were pretreated with each of 20 μM (the highest concentration showing no cytotoxicity), 10 μM and 5 μM of thio-Cl-IB-MECA in 10% FBS-containing medium, and inflammatory reactions in the cells were induced by LPS (1 μg/ml), followed by culture for 18 hours. […] The cells were thawed at 37° C. immediately before use and used in protein quantification and electrophoresis.
Protein quantification was performed using the BCA method, and […] of the protein was electrophoresed on 8-12% SDS-polyacrylamide gel at 150 V for 110 minutes. […] The membrane was washed 2-3 times with PBST for 5 minutes each time, after which HRP-conjugated secondary antibody was diluted at a ratio of 1:1,500-1:2,000 and incubated with the membrane at room temperature for 2-3 hours. the membrane was washed three times with PBST for 5 minutes each time and treated with a Western blot substrate (WESTSAVE Up™), and the produced luminescence was examined using LAS-3000. […]

Another assay deals with PC-3. Briefly: Morphological change of PC-3 cells. To be noted: 40, 20 and 10 μM, 48 hours. Format: cell-based, human. How it is done:
Each of LNCaP and PC-3 prostate cancer cell lines was treated with 40, 20 and 10 μM of thio-Cl-IB-MECA and cultured for 48 hours, and then the morphological change of the cells was observed.
Specifically, each type of the prostate cancer cells was diluted with 10% FBS (Fetal Bovine Serum)-containing medium to a density of 1.0×10^6 cells per 100 mm culture dish and cultured under the conditions of 37° C. and 5% CO2, followed by washing twice with PBS (Phosphate Buffered Saline). Thio-Cl-IB-MECA was diluted in 10% FBS-containing medium at required concentration, and then 10 ml of the culture medium prepared in the 100 mm culture dish was added thereto and incubated for a given time. The morphology of the cells was observed as a function of treatment time and concentration (FIGS. 11a and 11b).

Assay [1] concerns Wnt signaling-related proteins. Nature of the assay: PI-3 kinase / Wnt signaling proteins and β-catenin expression in LPS-stimulated RAW 264.7 cells. Format: cell-based, mouse. The method, then: A test was carried out to examine the effects of the inventive composition on the expressions of PI-3 kinase (which influences the NF-κB signaling pathway) and Wnt signaling-related proteins in RAW 264.7 cells. Specifically, RAW 264.7 cells were treated with the inventive composition (20 μM thio-Cl-IB-MECA), and after 30 minutes, were stimulated by LPS. At intervals of 5, 15, 30 and 60 minutes after culture, proteins were extracted from all the cells, and the effects of the inventive composition on the expressions of the proteins were measured in comparison with those in the control group treated with only LPS.
In order to examine the intranuclear movement of β-catenin and the accumulation of β-catenin in the cytoplasm, RAW 264.7 cells were treated with each of 5, 10 and 20 μM of the inventive composition (thio-Cl-IB-MECA), and after 30 minutes, the cells were stimulated by LPS. After 1 hour of culture, the cells were collected and separated into a nuclear extract and a cytosol extract. The expressions of β-catenin protein in the cytosol and nuclear portions were analyzed by Western blot, and the results of the analysis are shown in FIG. 7b. […] When no LPS stimulation is applied, β-catenin is degraded by phosphorylation.

The subject of assay [2] is Human colorectal cancer HCT116 cells. Nature of the assay: Morphological change of HCT116 cells. Type of assay: cell-based. To be noted: 40 μM, 48 hours. How it is done: Human colorectal cancer HCT116 cells were treated with 40 μM of thio-Cl-IB-MECA and cultured for 48 hours, and then the morphological change of the cells was observed.
Specifically, HCT116 cells were diluted with 10% FBS (Fetal Bovine Serum)-containing medium to a density of 1.0×10^6 cells per 100 mm culture dish and cultured under the conditions of 37° C. and 5% CO2, followed by washing twice with PBS (Phosphate Buffered Saline). Thio-Cl-IB-MECA was diluted to a concentration of 40 μM, and then 10 ml of the culture medium prepared in the 100 mm culture dish was added thereto and incubated for a given time. The morphology of the cells was observed as a function of treatment time and concentration (FIG. 19).

The mark [3] stands for this setting: 20 μM, LPS stimulation, 5, 15, 30, 60 min.

In the case of `CNC(=O)[C@H]1S[C@@H](n2cnc3c(NCc4cccc(I)c4)nc(Cl)nc32)[C@H](O)[C@@H]1O` [thio-Cl-IB-MECA, 2-chloro-N^6-(3-iodobenzyl)-4′-thioadenosine-5′-N-methyluronamide], the “expression of iNOS gene” value with iNOS (RT-PCR, 5, 10 or 20 μM, vs LPS control) was “inhibited the expression of iNOS gene in a concentration-dependent manner”. Besides, the “expression of iNOS protein” value with iNOS (Western blot, 5, 10, 20 μM, LPS 1 μg/ml, 18 hours) is given as “inhibited the expression of iNOS protein in a concentration-dependent manner”. Besides, the “number of the cells, PC-3” value in the assay with PC-3 is given as “decreased in a concentration-dependent manner”. In assay [1] (setting [3]), the “expression of p-AKT” value is “also inhibited at 30 min and 60 min”; the “expression of p-GSK 3α/β” value was “inhibited at 30 min and 60 min”. Also, in assay [1] (5, 10 and 20 μM, LPS, 1 hour), the “expression of p-β-catenin” value was “concentration-dependently inhibited”; the “expressions of β-catenin in the cytosol and nuclear portions” value was “concentration-dependently inhibited”. The “number of the cells, HCT116” value in assay [2] is on record as “decreased”.
